According to patent EP0417987B1, “Fabric softening” (UNILEVER PLC, priority 1989, dated 1991):
Counter-ions that a name gives are not always drawn. One block for each compound: values may come before it.

Columns and labels:
[1] = pH of the undiluted liquid rinse conditioner; details: rinse conditioner 5wt% Armeen M2HT, 1wt% tallow 35EO
Description: (§1) The performance and stability of several amine containing liquid fabric softening compositions was tested as follows:
(§2) A wash load of 1.25 kg of terry towelling and 1.25 kg of cotton sheeting fabrics was washed at 40°C in a Miele 756 automatic with 100g of Persil Automatic (UK).

[2] = pH of the rinse water after adding rinse conditioner to the last rinse cycle of a machine wash; format: physicochemical; details: 90 mls rinse conditioner (about 200 ppm amine) in last rinse cycle
Description: as §1, §2

[3] = Stability of the undiluted liquid rinse conditioner; details: rinse conditioner 5wt% Armeen M2HT, 1wt% tallow 35EO
Description: as §1, §2

[4] = pH adjuster conc 0.5 M in product
[5] = pH adjuster conc 0.7 M in product
[6] = pH adjuster conc 0.9 M in product
[7] = pH adjuster conc 0.6 M in product
[8] = pH adjuster conc 0.3 M in product
[9] = pH adjuster conc 0.4 M in product
[10] = pH adjuster conc 1.0 M in product

Structure (SMILES): O=P(O)(O)O [o-H₃PO₄, orthophosphoric acid]
undiluted product pH ([1]; pH adjuster conc 0.6 M): 1.3
undiluted product pH ([1]; pH adjuster conc 1.2 M): 0.8
rinse pH [2, 7]: 5.6
rinse pH [2, 6]: 4.6
rinse pH ([2]; pH adjuster conc 1.2 M in product): 3.8

Structure (SMILES): O=C(O)C(=O)O [Oxalic, Oxalic acid]
undiluted product pH ([1]; pH adjuster conc 0.6 M): 0.8
rinse pH [2, 8]: 6.0
rinse pH [2, 9]: 4.8
rinse pH [2, 7]: 3.3
undiluted product stability ([3]; pH adjuster conc 0.6 M): unstable

Structure (SMILES): O=C(O)CCC(=O)O [Succinic, succinic acid]
undiluted product pH ([1]; pH adjuster conc 1.0 M): 2.3
undiluted product pH ([1]; pH adjuster conc 1.5 M): 2.2
rinse pH [2, 10]: 4.5
rinse pH ([2]; pH adjuster conc 1.5 M in product): 4.2
undiluted product stability ([3]; pH adjuster conc 1.0 M): stable
undiluted product stability ([3]; pH adjuster conc 1.5 M): stable

Structure (SMILES): O=C(O)C(O)C(O)C(=O)O (centres unmarked) [Tartaric, tartaric acid]
rinse pH [2, 9]: 5.7
rinse pH [2, 4]: 4.5
rinse pH ([2]; pH adjuster conc 0.8 M in product): 3.9

Second part, the compound after the results:

undiluted product pH ([1]; pH adjuster conc 0.7 M): 1.5
rinse pH [2, 4]: 5.4
rinse pH [2, 5]: 4.7
rinse pH [2, 6]: 3.4
undiluted product stability ([3]; pH adjuster conc 0.7 M): stable
Structure (SMILES): O=C(O)CC(=O)O [Malonic, malonic acid]

rinse pH [2, 8]: 5.6
rinse pH [2, 4]: 4.5
rinse pH [2, 6]: 3.8
Structure (SMILES): O=C(O)CC(O)(CC(=O)O)C(=O)O [Citric, citric acid]

undiluted product pH ([1]; pH adjuster conc 0.7 M): 0.2
undiluted product pH ([1]; pH adjuster conc 1.0 M): 0.1
rinse pH [2, 5]: 5.2
rinse pH [2, 6]: 4.4
rinse pH [2, 10]: 3.7
Structure (SMILES): Cl [HCl]
